According to patent US10314295B2, “Mouse model of hyperuricemia” (PHOENIXBIO CO., LTD., priority 2014, dated 2019):

Test system: hyperuricemia model mice
Test: Allopurinol-induced change in plasma uric acid level in hyperuricemia model mice
Assay type: in vivo, mouse
Method: The hyperuricemia model mice obtained as described above were subjected to administration of allopurinol, which is an existing drug for lowering blood uric acid levels. The number of the mice subjected to administration of allopurinol was six.
Allopurinol (Wako Pure Chemical Industries, Ltd.) was suspended in a 0.5 w/v% methylcellulose (MC) 400 solution (sterilized, Wako Pure Chemical Industries, Ltd.) for preparation of a 0.5 mg/mL allopurinol suspension. The 0.5 mg/mL allopurinol suspension was orally administered once in a volume of 10 mL/kg body weight (5 mg/kg body weight).
Blood was collected from each mouse before and 2, 4 and 24 hours after allopurinol or a 0.5 w/v % methylcellulose 400 solution was administered. The plasma uric acid concentration was measured in the same manner as above.

SMILES: Oc1ncnc2[nH]ncc12 [allopurinol]
- mean of the plasma uric acid concentrations (2 hours after single oral 5 mg/kg body weight, 6 mice, mean before administration 3.8 mg/dL, vehicle control 3.0 before, 4.8 at 2 hours): 1.9 mg/dL
- change of plasma uric acid concentration by administration (single oral 5 mg/kg body weight, 2 hours after vs before administration): significantly reduced
